Experimental data published in ChEMBL document CHEMBL4118044, “Manzamine Alkaloids from an Acanthostrongylophora sp. Sponge” (J Nat Prod, 2017).
Converted amounts (≈) assume the structure as drawn.

Assays:
[1] = tested on: Staphylococcus aureus; test: Antibacterial activity against Staphylococcus aureus ATCC 6538p after 24 hrs by serial two fold dilution method; assay type: functional
[2] = tested on: Bacillus spizizenii; test: Antibacterial activity against Bacillus subtilis ATCC 6633 after 24 hrs by serial two fold dilution method; assay type: functional; details: ATCC 6633, 24 h
[3] = tested on: Kocuria rhizophila; test: Antibacterial activity against Kocuria rhizophila NBRC 12708 after 24 hrs by serial two fold dilution method; assay type: functional; details: NBRC 12708, 24 h
[4] = tested on: Salmonella typhimurium; test: Antibacterial activity against Salmonella enterica ATCC 14028 after 24 hrs by serial two fold dilution method; assay type: functional, Salmonella enterica subsp. enterica serovar Typhimurium; details: ATCC 14028, 24 h
[5] = tested on: Proteus hauseri; test: Antibacterial activity against Proteus hauseri NBRC 3851 after 24 hrs by serial two fold dilution method; assay type: functional; details: NBRC 3851, 24 h
[6] = tested on: Escherichia coli; test: Antibacterial activity against Escherichia coli ATCC 35270 after 24 hrs by serial two fold dilution method; assay type: functional; details: ATCC 35270, 24 h
[7] = tested on: K562; test: Cytotoxicity against human K562 cells by MTT assay; assay type: functional; details: read-out: LC50 (the source's name)
[8] = tested on: A549; test: Cytotoxicity against human A549 cells by MTT assay; assay type: functional; details: read-out: LC50 (the source's name)
[9] = biological target: Sodium/potassium-transporting ATPase; test: Inhibition of KCl-stimulated Na+/K+-ATPase in human placental membrane vesicles measured for 60 secs by 3-O-methylfluorescein phosphate dye based fluorometric method; assay type: cell membranes, Placenta
[10] = biological target: T1, Sortase A (Staphylococcus aureus, UniProt Q9S446); test: Inhibition of Staphylococcus aureus ATCC 6538p SortA expressed in Escherichia coli using Dabcyl-QALPETGEE-Edans as substrate after 1 hr by fluorescence spectrophotometric method
T1 sequence (Q9S446 whole entry): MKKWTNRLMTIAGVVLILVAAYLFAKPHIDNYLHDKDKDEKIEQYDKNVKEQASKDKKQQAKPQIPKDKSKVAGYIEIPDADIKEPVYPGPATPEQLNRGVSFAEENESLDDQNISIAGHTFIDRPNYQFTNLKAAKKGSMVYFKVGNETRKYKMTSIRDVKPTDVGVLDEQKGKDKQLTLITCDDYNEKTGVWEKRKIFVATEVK

[11] = Inhibition of Magnaporthe grisea Guy 11 ICL; parameters: species or system Pyricularia grisea

| SMILES | MIC [1] | MIC [2] | MIC [3] | MIC [4] | MIC [5] | MIC [6] | CC50 [7] | CC50 [8] | IC50 [9] | IC50 [10] | IC50 [11] |
| --- | --- | --- | --- | --- | --- | --- | --- | --- | --- | --- | --- |
| C1=C\CC[C@]23O[C@H]2[C@@H](c2nccc4c2[nH]c2ccccc24)[C@@H]2CCN(CCCC/1)C[C@@]21CCCCCCCCN[C@H]13 | > 100 µg/mL | 100 µg/mL (≈ 181 µM) | 100 µg/mL (≈ 181 µM) | 50 µg/mL (≈ 90.4 µM) | > 100 µg/mL | > 100 µg/mL | 9.6 µM | 6.5 µM | > 150 µM | > 150 µM | > 150 µM |
| Cl.[O-][n+]1ccc2c([nH]c3ccccc32)c1C1=C[C@@]2(O)CC/C=C\CCCCN3CC[C@@H]1[C@]1(CC/C=C\CCCCN[C@H]12)C3 | 32 µg/mL | > 100 µg/mL | > 100 µg/mL | 32 µg/mL | > 100 µg/mL | > 100 µg/mL | 8.1 µM | 4.7 µM | > 150 µM | 81 µM | 26 µM |
| CC1(C)S[C@@H]2[C@H](NC(=O)[C@H](N)c3ccccc3)C(=O)N2[C@H]1C(=O)O [AMPICILLIN] | 0.39 µg/mL (≈ 1.12 µM) | 0.78 µg/mL (≈ 2.23 µM) | 0.39 µg/mL (≈ 1.12 µM) | 0.39 µg/mL (≈ 1.12 µM) | 1.6 µg/mL (≈ 4.58 µM) | 6.3 µg/mL (≈ 18 µM) | – | – | – | – | – |
| O[C@@H]1CC[C@@]23C[C@]45CN6CCCC/C=C\CC[C@](O)(C=C(c7nccc8c7[nH]c7ccccc78)[C@@H]4CC6)[C@@H]5N2CC[C@@H]1O[C@@]12CC[C@@H](O3)[C@@H](O)CCN1[C@@H]1[C@]3(CN4CCCC/C=C\CC[C@]1(O)C=C(c1nccc5c1[nH]c1ccccc15)[C@@H]3CC4)C2 | > 100 µg/mL | 1.6 µg/mL (≈ 1.38 µM) | 1.6 µg/mL (≈ 1.38 µM) | 0.78 µg/mL (≈ 0.672 µM) | > 100 µg/mL | > 100 µg/mL | 12 µM | 13 µM | > 150 µM | > 150 µM | 27 µM |
| COc1cccc2c1C(=O)c1c(O)c3c(c(O)c1C2=O)C[C@@](O)(C(=O)CO)C[C@@H]3O[C@H]1C[C@H](N)[C@H](O)[C@H](C)O1 [DOXORUBICIN] | – | – | – | – | – | – | 1.1 µM | 0.92 µM | – | – | – |
| O[C@]12C=C(c3nccc4c3[nH]c3ccccc34)[C@@H]3CCN(CCCC/C=C\CC1)C[C@@]31C[C@@H]3/C=C\CCCCN3[C@H]12 [MANZAMINE A] | > 100 µg/mL | 50 µg/mL (≈ 91.1 µM) | 50 µg/mL (≈ 91.1 µM) | 3.1 µg/mL (≈ 5.65 µM) | > 100 µg/mL | > 100 µg/mL | 11 µM | 8.3 µM | > 150 µM | > 150 µM | 140 µM |
| O[C@]12C=C(c3nccc4c3[nH]c3ccccc34)[C@@H]3CCN(CCCC/C=C\CC1)C[C@@]31C[C@@H]3C=C[C@H]4CCC[N@+]43[C@H]12.[Cl-] | 8 µg/mL | 32 µg/mL | 16 µg/mL | 16 µg/mL | 8 µg/mL | 64 µg/mL | 7.2 µM | 4.6 µM | > 150 µM | – | > 150 µM |
| Cl.[O-][N+]1=C(C2=C[C@@]3(O)CC/C=C\CCCCN4CC[C@@H]2[C@]2(CC/C=C\CCCCN[C@H]23)C4)c2[nH]c3ccccc3c2CC1 | 32 µg/mL | 64 µg/mL | 64 µg/mL | > 100 µg/mL | 32 µg/mL | > 100 µg/mL | 9.5 µM | 5.7 µM | 110 µM | > 150 µM | > 150 µM |
| O[C@@H]1CCCN2[C@@H](CC1)C[C@]13CN4CCCC/C=C\CC[C@](O)(C=C(c5nccc6c5[nH]c5ccccc56)[C@@H]1CC4)[C@H]23 [32,33-DIHYDRO-31-HYDROXYMANZAMINE A] | 50 µg/mL (≈ 88.2 µM) | 25 µg/mL (≈ 44.1 µM) | 13 µg/mL (≈ 22.9 µM) | 1.6 µg/mL (≈ 2.82 µM) | 100 µg/mL (≈ 176 µM) | > 100 µg/mL | 8.4 µM | 8.2 µM | > 150 µM | > 150 µM | 68 µM |
| Cn1cncc1C(=O)c1nccc2c1[nH]c1ccccc12 | > 100 µg/mL | 50 µg/mL (≈ 181 µM) | 25 µg/mL (≈ 90.5 µM) | 25 µg/mL (≈ 90.5 µM) | > 100 µg/mL | > 100 µg/mL | 13 µM | 12 µM | > 150 µM | > 150 µM | > 150 µM |
| O=C(O)CC[N+](=O)[O-] | – | – | – | – | – | – | – | – | – | – | 19 µM |
| O[C@H]1/C=C\[C@H]2C[C@]34CN5CCCC/C=C\CC[C@](O)(C=C(c6nccc7c6[nH]c6ccccc67)[C@@H]3CC5)[C@@H]4N2CCC1 | 25 µg/mL (≈ 44.3 µM) | 6.3 µg/mL (≈ 11.2 µM) | 6.3 µg/mL (≈ 11.2 µM) | 1.6 µg/mL (≈ 2.83 µM) | 13 µg/mL (≈ 23 µM) | > 100 µg/mL | 7.2 µM | 5.8 µM | > 150 µM | > 150 µM | 140 µM |
| Cn1cncc1C(=O)C1=NCCc2c1[nH]c1ccccc21 | 50 µg/mL (≈ 180 µM) | 25 µg/mL (≈ 89.8 µM) | 25 µg/mL (≈ 89.8 µM) | 6.3 µg/mL (≈ 22.6 µM) | 50 µg/mL (≈ 180 µM) | > 100 µg/mL | 9.2 µM | 9.9 µM | > 150 µM | > 150 µM | 75 µM |
